Consider six compounds from patent US4612311A, “1,2,4-benzothiadiazine oxide derivatives” (Warner-Lambert Company, priority 1984, dated 1986).

Usually Kd stands for the equilibrium constant for the complex coming apart. A lower Kd goes with tighter binding. As usually defined, the LD50 is the dose at which mortality reaches 50%. Low values mean a more toxic substance, high ones a less toxic substance.

The nature of series [1]: Unpunished exploratory behavior (light-dark preference), anxiolytic activity. It counts as in vivo, male mice (NMRI). To be noted: 30 min before test, control = 100%. On the procedure: (§1) Experimental animals used were male mice (NMRI, origin: Ivanovas, Kissleg) of weight 18 to 25 g. The animals were allowed food and water ad lib.. but, according to the test, they were fasted for two to 16 hours before the beginning of the test with water allowed ad lib.
(§2) The substances under test were applied orally by means of a stomach tube in a 0.8% methocel suspension 30 minutes before the start of the test.
(§3) The model for testing for anxiolytic activity is based on the experimental creation of a conflict in the animals by counteracting the natural exploratory tendencies of the animals with an anxiety-inducing stimulus (aversive foot shock, aversive illumination).
The testing equipment consists of a larger, brightly illuminated compartment and a smaller dark compartment. The animal is placed in the dark compartment and observed for ten minutes. The number of transitions between the compartments and the time spent in the two compartments are measured. The average number of transitions between the compartments of the control animals is taken as 100%. Ten animals were tested per dose.

Series [2] is described as follows: Motility test (spontaneous motility). It counts as in vivo, male mice (NMRI). To be noted: 30 min. On the procedure: as §1, §2
The spontaneous motility was measured simultaneously for a test group of five animals each for 30 minutes in two opaque cages (length 50 cm, width 25 cm, height 30 cm) using three infrared light barriers in each case. The sum of the impulses registered for the control group during this period was taken as 100% and the deviation in the case of the test group from this value was calculated in percent.

The next series in a line: Ataxia threshold. It counts as in vivo, male mice (NMRI). Conditions: oral, ">": no effect up to this highest examined dosage. On the procedure: as §1, §2
Series [3] can be described thus: Effect on duration of hexobarbital anesthesia (hypnotic activity). It is filed as in vivo, male mice (NMRI). To be noted: hexobarbital sodium 70 mg/kg i.v. How it is done:
as §1, §2
Seventy mg/kg (10 ml/kg body weight) of hexobarbital sodium were injected into a tail vein within a period of 15 seconds. Ten animals were used per dose. The criterion for the end of anesthesia was the moment when the animal roused itself from lying on its side. The average duration of anesthesia in the control animals was taken as 100 and the increases measured were calculated as a percentage of this value.

For series [4], the target named is benzodiazepine rec. Put plainly: Receptor binding: benzodiazepine rec.
The nature of series [5]: Punished exploratory behavior (4 plate test), anxiolytic activity. It counts as in vivo, male mice (NMRI). To be noted: for Anxiolytic Activity (punished exploration), increase: 30 min before test, control = 100%. How it is done:
as §1, §2, §3
The test box has a metal base consisting of four rectangles of equal size. After placing the animal in the box it can freely explore for 15 seconds. Then every transition from one metal plate of the base to another is punished by a mild foot shock (1.5 mA for 0.5 seconds). The number of tolerated foot shocks within one minute is the measure of the anxiolytic activity of the substance. The average number of accepted foot shock by the control animals was taken as 100%. Ten animals were examined per dose.

Series [6] relates to benzodiazepine rec. In words: GABA-Ratio, benzodiazepine receptor binding. Conditions: in words.
The next series in a line: LD50. On the set-up: species or system male mice (NMRI). Conditions: mouse, in vivo; oral; ">": no effect up to this highest examined dosage. On the procedure:
as §1, §2

Where only a bound is given, the exact number is not on record here.

As to `CN1C(=O)CN=C(c2ccccc2)c2cc(Cl)ccc21` [Diazepam, reference compound], the “Anxiolytic Activity (unpunished exploration), increase” value in series [1] (2 mg/kg oral) amounted to 43%. Also, the “Anxiolytic Activity (unpunished exploration), decrease” value in series [1] (5 mg/kg oral) is 33%. Moreover, the “Spontaneous Motility, decrease” value in series [2] (5 mg/kg oral, control = 100%) is given as 67%. The “Ataxia Threshold” value in the series “Ataxia threshold” is 5 mg/kg; in the series “Ataxia threshold” (listed as diazepam), “approximately 5 mg/kg”. Further, the results for the “Hypnotic Activity (increase in sleep time)” value in series [3] (2 mg/kg oral) and in series [3] (4 mg/kg oral) were 286% and 320%, respectively. On benzodiazepine rec. [4], this compound came in with a Kd of 64 nM.
As to `Cc1nc2n(n1)-c1ccc(Cl)cc1S(=O)(c1ccccc1Cl)=N2` (racemic) [Example 2c, (±)-7-Chloro-2-methyl-5-(2-chlorophenyl)[1,2,4]triazolo[5,1-c][1,2,4]benzothiadiazine-5-oxide], the “Anxiolytic Activity (punished exploration), increase” value in series [5] (30 mg/kg oral) stood at 66%. Also, in series [2] (30 mg/kg oral, control = 100%), the “Spontaneous Motility, increase” value is recorded as 6%. The “Ataxia Threshold” value in the series “Ataxia threshold” is on record as over 100 mg/kg. Besides, the “Hypnotic Activity (increase in sleep time)” value in series [3] (30 mg/kg oral) turned out to be 96%. Further, the dissociation constant Kd at benzodiazepine rec. [4] worked out at 20 nM. Also, the “GABA-Ratio, agonist character” value in the series with benzodiazepine rec. [6] is on record as “part. ago”. The compound further displayed an LD50 in the series “LD50” of over 400 mg/kg.
For the compound `Cc1nc2n(n1)-c1ccc(Cl)cc1S(=O)(c1ccccc1)=N2` (racemic) [Example 1a, (±)-7-Chloro-2-methyl-5-phenyl-[1,2,4]triazolo[5,1-c][1,2,4]benzothiadizine-5-oxide], the “Anxiolytic activity (in words)” value in series [5] (7.5 to 45 mg/kg, compared with diazepam 1 to 4 mg/kg) is on record as “comparable with that of diazapam (1 to 4 mg/kg)”. The “Ataxia Threshold” value in the series “Ataxia threshold” is given as over 100 mg/kg. Besides, the “Hypnotic Activity (increase in sleep time)” value was 123% in series [3] (25 mg/kg oral) and 175% in series [3] (50 mg/kg oral). The same compound had a Kd on benzodiazepine rec. [4] of 1500 nM. Further, in the series with benzodiazepine rec. [6], the “GABA-Ratio, agonist character” value is on record as “part. agonist”. In “LD50”, this compound yielded an LD50 of 1600 mg/kg.
Turning to `Cc1nc2n(n1)-c1ccc(Cl)cc1S(=O)(c1cccc(Cl)c1)=N2` (racemic) [Example 1c, (±)-7-Chloro-5-(3-chlorophenyl)-2-methyl-[1,2,4]triazolo[5,1-c][1,2,4]benzothiadiazine-5-oxide], the “Anxiolytic Activity (punished exploration), increase” value in series [5] (15 mg/kg oral) turned out to be 35%. Further, the “Spontaneous Motility, increase” value in series [2] (15 mg/kg oral, control = 100%) stood at 12%. In the series “Ataxia threshold”, the “Ataxia Threshold” value is recorded as over 100 mg/kg. For the same compound, the “Hypnotic Activity (increase in sleep time)” value in series [3] (15 mg/kg oral) worked out at 6%. The compound also yielded a Kd at benzodiazepine rec. [4] of 10000 nM. The compound also yielded an LD50 in the series “LD50” of over 400 mg/kg.
Consider `O=S1(c2ccccc2)=Nc2ncnn2-c2ccc(Cl)cc21` (racemic) [Example 4a, (±)-7-Chloro-5-phenyl-[1,2,4]triazolo[5,1-c][1,2,4]benzothiadiazine-5-oxide], for which the “Anxiolytic Activity (punished exploration), increase” value in series [5] (15 mg/kg oral) was determined as 45%. Moreover, the “Spontaneous Motility (effect in words)” value in series [2] (100 mg/kg oral) is given as “no effect”. Moreover, the “Ataxia Threshold” value in “Ataxia threshold” is listed as over 100 mg/kg. For the same compound, the “Hypnotic Activity (increase in sleep time)” value in series [3] (100 mg/kg oral) is listed as 224%. Also, the Kd at benzodiazepine rec. [4] worked out at 3500 nM. Moreover, the “GABA-Ratio, agonist character” value in the series with benzodiazepine rec. [6] was “part. ago”. Besides, in the series “LD50”, the LD50 is over 400 mg/kg.
With `O=S1(c2ccccc2)=Nc2ncnn2-c2cc(Cl)c(Br)cc21` (racemic) [Example 4b, (±)-7-Bromo-8-chloro-5-phenyl-[1,2,4]triazolo[5,1-c][1,2,4]benzothiadiazine-5-oxide], the “Anxiolytic Activity (punished exploration), increase” value in series [5] (12.5 mg/kg oral) was determined as 34%. For the same compound, the “Spontaneous Motility, increase” value in series [2] (12.5 mg/kg oral, control = 100%) is 83%. Moreover, the “Ataxia Threshold” value in the series “Ataxia threshold” is reported as over 400 mg/kg. Moreover, in series [3] (25 mg/kg oral), the “Hypnotic Activity (increase in sleep time)” value was determined as 21%. The Kd at benzodiazepine rec. [4] was found to be 100000 nM. Further, the LD50 in the series “LD50” is over 400 mg/kg.
